Where two headings read alike, the source gives them in different places.
Key:
I/R mice = assay: Histopathology (H&E, Masson Trichrome) one week post-I/R in mice; format: in vivo, mouse; conditions: 2 mg/kg IP; one week after I/R
Source text: (A) The representative echocardiographic images, (B) the quantification of ejection fraction, (C) the representative histopathologic […]) the quantification of infarct size were obtained from the mice with the indicated treatments for one week post-I/R (n=8). (E) The representative enlarged H&E stain obtained from mice one week post-I/R. The areas highlighted in yellow boxes (left panel) are shown by the enlarged view (right panel). (F) The representative Masson Trichrome stain obtained from mice one week post-I/R. The black arrows indicate the location of inflammation or fibrosis in the myocardium. I/R: I/R-mice treated with the vehicle control, I/R+A: […] treated with Auranofin. (B) and (D) **P<0.01. We anesthetized the mouse with 5% isoflurane mixed with room air until loss of sensation of pain and then maintained the mouse in anesthesia status with 2% isoflurane mixed with room air through the whole procedure. The mouse's body temperature was maintained at 37° C. by a heating pad. After the mouse was intubated, we provided artificial ventilation to the mouse with a small animal ventilator. Then the chest cavity was opened at the second intercostal space and homemade chest retractors were utilized to widen the incision. We pulled the pericardium apart carefully and exposed the left anterior descending artery (LAD). A 7-0 silk was put underneath the LAD at the position of the tip of the left auricle, a 6 mm length of PE-10 tube was put on the surface of the LAD, and then a double knot was made to occlude the blood flow of LAD. The success of ligation was confirmed by […] anterior wall of the LV. For the reperfusion group, the LAD knot would be untied for the purpose of reperfusion after 1 hour of ischemia. For the sham operation group, all procedures were the same except for the knot that occluded the LAD flow. After the successful procedure, we left the silk in situ, closed the chest cavity and weaned the animal from the ventilator.

[1] = molecular target: T1, PTP-PEST catalytic domain (Homo sapiens, UniProt Q05209); assay: IC50 kinetic assay: phosphatase activity of purified PTP-PEST catalytic domain with phospho-Paxillin peptide substrate; format: biochemical
T1 construct: PTP PEST Catalytic Domain construct (Amino Acid:1-300) with 6 His tag at N-terminal; 6 His (N, cleaved yes); made in house; host or cells: Sf9 insect cells (Sf9-VECL-01), Bac-to-Bac baculovirus system
T1 sequence (Q05209 1-300): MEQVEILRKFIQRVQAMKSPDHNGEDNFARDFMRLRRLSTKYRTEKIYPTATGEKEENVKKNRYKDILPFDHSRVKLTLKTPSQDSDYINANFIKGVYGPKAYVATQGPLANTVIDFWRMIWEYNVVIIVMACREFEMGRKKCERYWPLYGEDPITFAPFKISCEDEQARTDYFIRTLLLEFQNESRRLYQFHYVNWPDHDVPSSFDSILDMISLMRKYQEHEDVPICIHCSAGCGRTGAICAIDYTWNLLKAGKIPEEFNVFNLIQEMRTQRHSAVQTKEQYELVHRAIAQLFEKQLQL
Description: PTP PEST Catalytic Domain construct (Amino Acid:1-300) with 6 His tag at N-terminal were expressed in insect cell Sf9-VECL-01 Cell line, using Bac-to-Bac Baculovirus expression system. Cells were infected with baculovirus at 27° C. and harvested after 65 hours of infection. Post harvesting cell suspension were centrifuged and pellet was stored at -80° C. To purify the protein, pellet was thawed and then dissolved in lysis buffer containing 50 mM Tris-HCl, 500 mM NaCl, 5% Glycerol, pH-7.5, and protease inhibitor cocktail tablet, EDTA free from Roche. Cell were lysed by TS-series cell disrupter (Constant System Ltd.) then lysate was centrifuged at 20000 RPM for 30 minutes at 4° C. using JA25.5 rotor in an Avanti J-26-XPI Centrifuge. […] After SEC purity of the protein was analyzed by SDS page and quantification was carried out by using NanoDrop Spectrophotometer. […] The absorbance of the reaction was measured at 650 nm by using Tecan Infinite […] instrument. The absorbance value was converted to amount of phosphate produced in reaction based on the standard curve generated from known phosphate concentration. Data generated in the reaction was fitted using nonlinear regression mode and IC50 value were calculated based on the equation function “Log(inhibitor) vs response-variable slope” from Graph Pad Prism 5.0.

## CC(=O)OC[C@H]1O[C@@H]([S-])[C@H](OC(C)=O)[C@@H](OC(C)=O)[C@@H]1OC(C)=O.CCP(CC)CC.[Au+] [Auranofin, auranofin]
I/R mice
  Fibrosis: less
  Infarct size (pathological study, H&E): smaller
  Infiltrating inflammatory cells: fewer
  Myocardial thinning over the injured area: a minor degree
[1]; read-out: IC50 of the auranofin to the PTP-PEST, as restated in the summary
  IC50: 38.7 µM
[1]; synthetic phospho-Paxillin peptide as substrate, 25 nM protein, 50 μM peptide, 30° C., 30 min, read-out: IC50 on enzymatic activity of purified PTP-PEST
  IC50: 38.7 µM
